Laboratory results published in patent US8802664B2 (Bioproject, priority 2010, dated 2014).

molecular target: T1, human H4 receptor (Homo sapiens, UniProt Q9H3N8); test: [3H]Histamine binding on membranes of CHO cells stably expressing human H4 receptor; details: not given
T1 construct: expressed in transfected cells
How it was run: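 Filter-bound counts (liquid scintillation) gave H4 binding. Incubation used 20 μg membrane protein/well in Tris/HCl 50 mM plus EDTA 0.5 mM at pH 7.4, and 10 μM JNJ 7777120 set nonspecific binding. Filtration on GF/B pretreated with polyethyleneimine stopped the reaction.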

T1 sequence (Q9H3N8 whole entry): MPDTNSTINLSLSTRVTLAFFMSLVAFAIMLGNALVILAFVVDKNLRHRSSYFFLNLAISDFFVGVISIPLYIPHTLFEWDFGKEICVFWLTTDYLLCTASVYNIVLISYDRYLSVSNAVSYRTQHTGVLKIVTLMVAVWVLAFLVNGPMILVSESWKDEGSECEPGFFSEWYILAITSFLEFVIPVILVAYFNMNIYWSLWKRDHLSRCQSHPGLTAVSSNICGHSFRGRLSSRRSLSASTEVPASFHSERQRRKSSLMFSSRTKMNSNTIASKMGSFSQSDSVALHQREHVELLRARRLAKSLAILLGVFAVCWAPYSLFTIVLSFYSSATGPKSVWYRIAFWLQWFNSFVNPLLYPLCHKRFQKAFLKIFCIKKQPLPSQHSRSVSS

CN1CCC(NC(c2cccc(OCC3CCCCC3)c2)c2nc3ccccc3s2)CC1 (stereo not drawn) [Example 93, [benzothiazol-2-yl(3-cyclohexylmethoxyphenyl)methyl](1-methylpiperidin-4-yl)amine] and CN1CCC(OC(c2cccc(OCc3ccco3)c2)c2nc3ccccc3s2)CC1 (stereo not drawn) [Example 267, 2-[[3-(furan-2-ylmethoxy)phenyl](1-methylpiperidin-4-yloxy)methyl]benzothiazole] cannot be ordered by Ki or IC50 activity class: < 300 nM for the first, < 30 nM for the second.

CN1CCC(OC(c2cccc(CCCN)c2)c2nc3ccccc3[nH]2)CC1 (stereo not drawn) [Example 303, 3-{3-[(1H-benzimidazol-2-yl)(1-methylpiperidin-4-yloxy)methyl]phenyl}propylamine] and CSc1cccc(C(OC2CCN(C)CC2)c2nc3ccccc3[nH]2)c1 (stereo not drawn) [Example 202, 2-[(1-methylpiperidin-4-yloxy)(3-methylsulfanyl-phenyl)methyl]-1H-benzimidazole] cannot be ordered by Ki or IC50 activity class: < 300 nM for the first, < 30 nM for the second.

CN1CCC(OC(c2cccc(SCCNC(=N)N)c2)c2nc3ccccc3[nH]2)CC1 (stereo not drawn) [Example 278, N-(2-{3-[(1H-benzimidazol-2-yl)(1-methylpiperidin-4-yloxy)methyl]phenylsulfanyl}ethyl)guanidine] and CN1CCC(OC(c2cccc(SCCCCCCNC(=N)N)c2)c2nc3ccccc3[nH]2)CC1 (stereo not drawn) [Example 458] cannot be ordered by Ki or IC50 activity class: < 30 nM for the first, < 300 nM for the second.

CN1CC(COC(c2cccc(Br)c2)c2nc3ccccc3[nH]2)C1 (stereo not drawn) [Example 506] and CN1CCC(OC(c2cccc(C#CCCCCNC(=N)N)c2)c2nc3ccccc3[nH]2)CC1 (stereo not drawn) [Example 346, N-(6-{3-[(1H-benzimidazol-2-yl)(1-methylpiperidin-4-yloxy)methyl]phenyl}hex-5-ynyl)guanidine] cannot be ordered by Ki or IC50 activity class: < 300 nM for the first, < 300 nM for the second.

CN1CCC(OC(c2cccc(SCCCN)c2)c2nc3ccccc3s2)CC1 (stereo not drawn) [Example 314, 3-{3-[benzothiazol-2-yl(1-methylpiperidin-4-yloxy)methyl]phenylsulfanyl}propylamine] and CN1CCC(OC(c2cccc(SCCn3ccnn3)c2)c2nc3ccccc3s2)CC1 (stereo not drawn) [Example 241, 2-{(1-methylpiperidin-4-yloxy)[3-(2-[1,2,3]triazol-1-yl-ethylsulfanyl)phenyl]methyl}benzothiazole] cannot be ordered by Ki or IC50 activity class: < 30 nM for the first, < 300 nM for the second.

CN1CCC(OC(c2cccc(C(F)(F)F)c2)c2nc3ccccc3s2)CC1 (stereo not drawn) [Example 31, 2-[(1-methylpiperidin-4-yloxy)(3-trifluoromethylphenyl)methyl]benzothiazole] and CN1CCC(OC(c2ccc(OC(F)(F)F)cc2)c2nc3ccccc3s2)CC1 (stereo not drawn) [Example 24, 2-[(1-methylpiperidin-4-yloxy)(4-trifluoromethoxyphenyl)methyl]benzothiazole] cannot be ordered by Ki or IC50 activity class: < 30 nM for the first, < 1000 nM for the second.

CN1CCC(OC(c2cccc(SCCc3cnccn3)c2)c2nc3ccccc3s2)CC1 (stereo not drawn) [Example 233, 2-{(1-methylpiperidin-4-yloxy)[3-(2-pyrazin-2-yl-ethylsulfanyl)phenyl]methyl}benzothiazole] and CN1CCC(OC(c2cccc(C=CC#N)c2)c2nc3ccccc3s2)CC1 (stereo not drawn) [Example 217, 3-{3-[benzothiazol-2-yl(1-methylpiperidin-4-yloxy)methyl]phenyl}acrylonitrile] cannot be ordered by Ki or IC50 activity class: < 300 nM for the first, < 300 nM for the second.

Cc1ccccc1COc1cccc(C(NC2CCN(C)CC2)c2nc3ccccc3[nH]2)c1 (stereo not drawn) [Example 129, {(1H-benzimidazol-2-yl)[3-(2-methylbenzyloxy)phenyl]methyl}(1-methylpiperidin-4-yl)amine] and CN1CCC(OC(c2cccc(-c3ccc(F)c(F)c3F)c2)c2nc3ccccc3s2)CC1 (stereo not drawn) [Example 141, 2-[(1-methylpiperidin-4-yloxy)(2′,3′,4′-trifluorobiphenyl-3-yl)methyl]benzothiazole] cannot be ordered by Ki or IC50 activity class: < 30 nM for the first, < 300 nM for the second.

CCOC(=O)n1c(C(OC2CCN(C)CC2)c2cc(OC(F)(F)F)ccc2F)nc2ccccc21 (stereo not drawn) [Example 553] was tested, and the Ki or IC50 activity class was < 1000 nM.

same assay, conditions: human H4 receptor; evaluated in the GTPγ[35S] assay or in the [3H]histamine binding assay (not stated which per compound); Ki or IC50 class

With CN1CCC(OC(c2cccc(SCC=CCN)c2)c2nc3ccccc3[nH]2)CC1 (stereo not drawn) [Example 474] the Ki or IC50 activity class was < 30 nM.
